The record followed here is patent US9290478B2, “Substituted quinoxalines as FGFR kinase inhibitors” (ASTEX THERAPEUTICS LTD, priority 2010, dated 2016).

Experiment [1] addresses FGFR2 (h) (Homo sapiens, UniProt P21802). Description: FGFR2 (enzymatic assay), TR-FRET. The settings on record: 0.4 μM ATP; read-out: FGFR2 pIC50 (converted). Format: biochemical. As to the method:
(§1) In a final reaction volume of 30 μL, FGFR2 (h) (150 ng/ml) was incubated with 50 mM HEPES pH 7.5, 6 mM MnCl2, 1 mM DTT, 0.1 mM Na3VO4, 0.01% Triton-X-100, 500 nM Btn-Flt3 and 0.4 μM ATP in the presence of compound (1% DMSO final). After incubation for 60 minutes at room temperature the reaction was stopped with 2.27 nM EU-anti P-Tyr, 7 mM EDTA, 31.25 nM SA-XL-665 and 0.02% BSA which was present for 60 minutes at room temperature. Time-Resolved Fluorescence Resonance Energy Transfer (TR-FRET) signal (ex340 nm. Em 620 nm, em 655 nm) was measured afterwards and results are expressed in (Relative Fluorescence Units). In this assay, the inhibitory effect of different compound concentrations (range 10 μM to 0.1 nM) was determined and used to calculate an IC50 (M) and pIC50 (−log IC50) value.
In general terms: In TR-FRET formats the signal depends on donor and acceptor labels being close together.

The target of experiment [2] is KDR (h) (VEGFR2) (Homo sapiens, UniProt P35968). Description: KDR (VEGFR2) (enzymatic assay), TR-FRET. Format: biochemical. The settings on record: 3 μM ATP; for IC50: read-out: VEGFR2 (KDR) pIC50 (converted). As to the method: KDR (VEGFR2) (Enzymatic Assay)
as §1, with “30 μL, KDR (h) (150” for “30 μL, FGFR2 (h) (150”, “Btn-Flt3 and 3 μM ATP” for “Btn-Flt3 and 0.4 μM ATP”, “incubation for 120 minutes at” for “incubation for 60 minutes at”, “expressed in RFU (Relative Fluorescence” for “expressed in (Relative Fluorescence”

In experiment [3] the target is T1, Ba/F3-Flt3-transfected cells (Homo sapiens, UniProt P36888, cells depend on it, form not given).
T1 construct: BAF3-FLT3 (MIN IL3) pIC50; other: minus IL3
T1 sequence (P36888 1-993): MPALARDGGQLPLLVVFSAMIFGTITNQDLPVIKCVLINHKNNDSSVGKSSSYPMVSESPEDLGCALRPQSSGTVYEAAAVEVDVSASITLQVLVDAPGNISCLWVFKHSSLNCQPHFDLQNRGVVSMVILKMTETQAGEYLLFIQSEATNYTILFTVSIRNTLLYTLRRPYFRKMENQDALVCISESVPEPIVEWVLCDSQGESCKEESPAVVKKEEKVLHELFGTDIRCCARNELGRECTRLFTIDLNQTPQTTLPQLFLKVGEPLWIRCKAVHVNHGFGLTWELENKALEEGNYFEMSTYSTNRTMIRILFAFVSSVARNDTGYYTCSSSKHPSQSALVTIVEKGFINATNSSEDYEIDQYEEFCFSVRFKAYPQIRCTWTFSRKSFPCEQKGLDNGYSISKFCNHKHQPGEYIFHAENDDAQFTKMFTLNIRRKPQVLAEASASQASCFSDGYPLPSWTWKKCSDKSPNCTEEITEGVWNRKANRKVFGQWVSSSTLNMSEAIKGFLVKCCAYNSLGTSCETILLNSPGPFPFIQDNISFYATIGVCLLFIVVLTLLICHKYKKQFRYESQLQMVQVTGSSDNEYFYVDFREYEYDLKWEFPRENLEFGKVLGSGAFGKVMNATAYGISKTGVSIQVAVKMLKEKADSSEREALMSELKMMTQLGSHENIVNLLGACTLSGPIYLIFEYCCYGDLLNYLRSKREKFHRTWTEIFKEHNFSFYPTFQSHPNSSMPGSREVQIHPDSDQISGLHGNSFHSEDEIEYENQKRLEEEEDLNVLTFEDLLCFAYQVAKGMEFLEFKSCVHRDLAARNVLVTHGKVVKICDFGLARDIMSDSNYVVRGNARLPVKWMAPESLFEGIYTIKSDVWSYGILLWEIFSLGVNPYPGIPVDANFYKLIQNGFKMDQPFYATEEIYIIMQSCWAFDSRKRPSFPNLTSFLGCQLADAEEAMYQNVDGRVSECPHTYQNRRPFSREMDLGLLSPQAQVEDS
Description: Ba/F3-Flt3 (minus IL3 or plus IL3) cellular proliferation assay. The settings on record: minus IL3. Format: cell-based. As to the method:
(§2) Ba/F3-Flt3 (Minus IL3 or Plus IL3) (Cellular Proliferation Assay)
(§3) In a 384 well plate, 100 nl of compound dilution in DMSO was sprayed before adding 50 μl cell culture medium (phenol red free RPMI-1640, 10% FBS, 2 mM L-Glutamine and 50 μg/ml Gentamycin) containing 20000 cells per well of Ba/F3-Flt3-transfected cells. Cells were put in an incubator at 37° C. and 5% CO2. After 24 hours, 10 μl of Alamar Blue solution (0.5 mM K3Fe(CN)6, 0.5 mM K4Fe(CN)6, 0.15 mM Resazurin and 100 mM Phosphate Buffer) was added to the wells, incubated for 4 hours at 37° C. and 5% CO2 before RFU's (Relative Fluorescence Units) (ex. 540 nm., em. 590 nm.) were measured in a fluororescence plate reader.
(§4) In this assay, the inhibitory effect of different compound concentrations (range 10 μM to 0.1 nM) was determined and used to calculate an IC50 (M) and pIC50 (−log IC50) value.
(§5) As a counterscreen the same experiment was performed in the presence of 10 ng/ml murine IL3.

For experiment [4], the system named is Ba/F3-Flt3-transfected cells. The experiment is described as above. It counts as cell-based. The settings on record: plus 10 ng/ml murine IL3 (counterscreen); for IC50: 24 h, read-out: BAF3_FLT3 (PLUS IL3) pIC50 (converted). Here is the method: as §2, §3, §4, §5
A general note: A counterscreen serves to expose hits that act by an unwanted route or on another target.

KDR (h) (VEGFR2), sequence (P35968 20-1356): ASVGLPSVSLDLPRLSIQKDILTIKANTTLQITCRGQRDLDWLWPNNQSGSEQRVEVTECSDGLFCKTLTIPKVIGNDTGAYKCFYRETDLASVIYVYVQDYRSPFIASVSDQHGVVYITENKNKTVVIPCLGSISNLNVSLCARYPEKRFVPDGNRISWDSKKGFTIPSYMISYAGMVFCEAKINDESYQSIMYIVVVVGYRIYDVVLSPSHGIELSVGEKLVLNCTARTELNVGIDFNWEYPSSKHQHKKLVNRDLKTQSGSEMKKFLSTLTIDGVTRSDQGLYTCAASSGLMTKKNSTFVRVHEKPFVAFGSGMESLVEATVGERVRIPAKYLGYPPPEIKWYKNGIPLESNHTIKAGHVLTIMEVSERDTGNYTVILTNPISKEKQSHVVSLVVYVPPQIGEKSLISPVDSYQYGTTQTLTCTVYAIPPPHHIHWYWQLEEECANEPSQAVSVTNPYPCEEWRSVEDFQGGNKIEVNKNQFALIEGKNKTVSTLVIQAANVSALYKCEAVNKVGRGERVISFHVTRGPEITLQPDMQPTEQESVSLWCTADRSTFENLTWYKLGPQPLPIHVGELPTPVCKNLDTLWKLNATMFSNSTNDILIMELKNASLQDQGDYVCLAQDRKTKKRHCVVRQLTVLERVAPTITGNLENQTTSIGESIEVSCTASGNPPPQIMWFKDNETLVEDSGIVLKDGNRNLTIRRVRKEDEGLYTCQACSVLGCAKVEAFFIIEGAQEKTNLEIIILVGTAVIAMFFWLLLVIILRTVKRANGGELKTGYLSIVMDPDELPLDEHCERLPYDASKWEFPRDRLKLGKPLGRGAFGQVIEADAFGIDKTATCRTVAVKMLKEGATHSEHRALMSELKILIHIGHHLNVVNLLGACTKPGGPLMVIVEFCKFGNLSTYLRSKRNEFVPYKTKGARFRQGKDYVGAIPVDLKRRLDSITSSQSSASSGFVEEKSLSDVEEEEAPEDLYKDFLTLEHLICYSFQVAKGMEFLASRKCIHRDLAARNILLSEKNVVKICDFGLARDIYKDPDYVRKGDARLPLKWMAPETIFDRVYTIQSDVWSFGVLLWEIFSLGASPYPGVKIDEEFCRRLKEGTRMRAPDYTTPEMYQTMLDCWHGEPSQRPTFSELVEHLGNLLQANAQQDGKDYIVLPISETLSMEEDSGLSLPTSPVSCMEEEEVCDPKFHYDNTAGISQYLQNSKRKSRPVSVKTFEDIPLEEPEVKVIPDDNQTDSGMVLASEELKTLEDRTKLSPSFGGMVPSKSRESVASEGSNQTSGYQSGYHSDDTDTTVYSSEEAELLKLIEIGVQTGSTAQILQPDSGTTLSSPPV
FGFR2 (h), sequence (P21802 22-821): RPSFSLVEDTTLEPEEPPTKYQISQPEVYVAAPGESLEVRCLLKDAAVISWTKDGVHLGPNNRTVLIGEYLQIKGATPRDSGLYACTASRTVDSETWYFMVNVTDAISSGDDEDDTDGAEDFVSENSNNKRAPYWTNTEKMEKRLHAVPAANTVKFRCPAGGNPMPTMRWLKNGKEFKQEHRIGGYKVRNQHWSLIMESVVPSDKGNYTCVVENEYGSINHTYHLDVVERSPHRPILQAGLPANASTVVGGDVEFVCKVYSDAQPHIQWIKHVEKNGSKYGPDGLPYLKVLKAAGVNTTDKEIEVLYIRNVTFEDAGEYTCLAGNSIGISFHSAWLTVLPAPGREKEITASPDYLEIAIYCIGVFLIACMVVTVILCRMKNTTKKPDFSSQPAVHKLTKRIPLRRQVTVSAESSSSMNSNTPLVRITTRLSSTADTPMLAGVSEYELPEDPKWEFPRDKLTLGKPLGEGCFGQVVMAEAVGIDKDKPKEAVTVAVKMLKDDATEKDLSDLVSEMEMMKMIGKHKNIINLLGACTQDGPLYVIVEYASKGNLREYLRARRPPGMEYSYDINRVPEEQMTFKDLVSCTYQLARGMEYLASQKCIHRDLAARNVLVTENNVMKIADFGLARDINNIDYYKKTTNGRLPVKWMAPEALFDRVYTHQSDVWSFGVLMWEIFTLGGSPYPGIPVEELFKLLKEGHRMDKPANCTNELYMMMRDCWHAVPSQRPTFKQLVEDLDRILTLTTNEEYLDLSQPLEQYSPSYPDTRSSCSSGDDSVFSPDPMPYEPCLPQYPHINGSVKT

In the case of `COc1cc(OC)cc(C(O)(CNCCNC(C)C)c2ccc3ncc(-c4cnn(C)c4)nc3c2)c1` (single isomer, unassigned) [Compound 5], the values for the IC50 in experiment [1], in experiment [2] and in experiment [4] were roughly 741 nM, greater than 1000 nM and greater than 10000 nM, respectively. Moreover, the “BAF3-FLT3 (MIN IL3) pIC50” value in experiment [3] was less than 5.
For the compound `COc1cc(OC)cc(C(O)(CNCCNC(C)C)c2ccc3ncc(-c4cnn(C)c4)nc3c2)c1` (single isomer, unassigned) [Compound 6], in experiment [1], the IC50 was 813 nM. For the same compound, the “BAF3-FLT3 (MIN IL3) pIC50” value in experiment [3] is listed as less than 5.
Regarding `COc1cc(OC)cc(C(CCNC(C)C)c2ccc3ncc(-c4cnn(C)c4)nc3c2)c1` (single isomer, unassigned) [Compound 19a], the IC50 in experiment [1] is 17.8 nM; in experiment [2], greater than 1000 nM; in experiment [4] it was greater than 10000 nM. The “BAF3-FLT3 (MIN IL3) pIC50” value in experiment [3] is given as less than 5.
Regarding `COc1cc(OC)cc(C(NCCNC(C)C)c2ccc3ncc(-c4cnn(C)c4)nc3c2)c1.Cl` (single isomer, unassigned) [Compound 24], the IC50 in experiment [1] was 324 nM; in experiment [2], greater than 1000 nM; in experiment [4], greater than 10000 nM. For the same compound, in experiment [3], the “BAF3-FLT3 (MIN IL3) pIC50” value was less than 5.
As to `COc1cc(OC)cc(C(CCNC(C)C)c2ccc3ncc(-c4cnn(C)c4)nc3c2)c1` (single isomer, unassigned) [Compound 32a], the figures for the IC50 in experiment [1] and in experiment [2] were 851 nM and greater than 10000 nM, respectively. The “BAF3-FLT3 (MIN IL3) pIC50” value in experiment [3] was less than 5. Moreover, in experiment [4], the “BAF3_FLT3 (PLUS IL3) pIC50” value was less than 5.
With `CNCC(O)(c1cc(OC)cc(OC)c1)c1ccc2ncc(-c3cnn(C)c3)nc2c1.Cl` (single isomer, unassigned) [Compound 37], the IC50 is 589 nM in experiment [1], greater than 1000 nM in experiment [2] and greater than 10000 nM in experiment [4]. The “BAF3-FLT3 (MIN IL3) pIC50” value in experiment [3] is listed as less than 5.
On to `CNCC(O)(c1cc(OC)cc(OC)c1)c1ccc2ncc(-c3cnn(C)c3)nc2c1.Cl` (single isomer, unassigned) [Compound 38], for which the IC50 in experiment [1] was greater than 1000 nM. Further, the “VEGFR2 (KDR) pIC50” value in experiment [2] was less than 6. For the same compound, in experiment [3], the “BAF3-FLT3 (MIN IL3) pIC50” value is reported as less than 5. Besides, in experiment [4], the “BAF3_FLT3 (PLUS IL3) pIC50” value is less than 5.
On to `COc1cc(OC)cc(C(NCCNC(C)C)c2ccc3ncc(-c4cnn(C)c4)nc3c2)c1.Cl` (single isomer, unassigned) [Compound 39], for which the IC50 in experiment [1] is greater than 1000 nM. In addition, in experiment [2], the “VEGFR2 (KDR) pIC50” value is less than 6. Also, the “BAF3-FLT3 (MIN IL3) pIC50” value in experiment [3] was less than 5. Also, the “BAF3_FLT3 (PLUS IL3) pIC50” value in experiment [4] was less than 5.
Regarding `COc1cc(OC)cc(C(=O)c2ccc3ncc(-c4cnn(C)c4)nc3c2)c1` [Compound 2], the IC50 in experiment [1] is 209 nM; in experiment [2] it was 708 nM; in experiment [4], greater than 10000 nM. Besides, in experiment [3], the “BAF3-FLT3 (MIN IL3) pIC50” value is recorded as less than 5.
Consider `COc1cc(OC)cc(/C(=C/C#N)c2ccc3ncc(-c4cnn(C)c4)nc3c2)c1` [Compound 3], for which the IC50 in experiment [1] is 5130 nM; in experiment [2], 3980 nM; in experiment [4], greater than 10000 nM. Besides, the “BAF3-FLT3 (MIN IL3) pIC50” value in experiment [3] was less than 5.
For `COc1cc(OC)cc(/C(=C\C#N)c2ccc3ncc(-c4cnn(C)c4)nc3c2)c1` [Compound 4], the IC50 in experiment [1] is 102 nM; in experiment [2], 661 nM; in experiment [4] it was greater than 10000 nM. Besides, the “BAF3-FLT3 (MIN IL3) pIC50” value in experiment [3] is listed as 5.29.
`COc1cc(OC)cc(C(CCN2CCCC2=O)c2ccc3ncc(-c4cnn(C)c4)nc3c2)c1.Cl` (centres unmarked) [Compound 7]: the values for the IC50 in experiment [1], in experiment [2] and in experiment [4] were 38 nM, 347 nM and greater than 10000 nM, respectively. For the same compound, the “BAF3-FLT3 (MIN IL3) pIC50” value in experiment [3] is less than 5.
Taken in the same sequence, the figures for `COc1cc(OC)cc(/C(=C\CNC(C)C)c2ccc3ncc(-c4cnn(C)c4)nc3c2)c1` [Compound 8, {(Z)-3-(3,5-Dimethoxy-phenyl)-3-[3-(1-methyl-1H-pyrazol-4-yl)-quinoxalin-6-yl]-allyl}-isopropyl-amine] were 10.7 nM, 389 nM, roughly 8710 nM and 5.09.
Turning to `COc1cc(OC)cc(/C(=C/CNC(C)C)c2ccc3ncc(-c4cnn(C)c4)nc3c2)c1` [Compound 9], the IC50 in experiment [1] was 87.1 nM; in experiment [2] it was 4470 nM; in experiment [4], greater than 10000 nM. In experiment [3], the “BAF3-FLT3 (MIN IL3) pIC50” value is roughly 5.05.
On to `COc1cc(OC)cc(/C(=C\CN(C)C)c2ccc3ncc(-c4cnn(C)c4)nc3c2)c1` [Compound 10, {(Z)-3-(3,5-Dimethoxy-phenyl)-3-[3-(1-methyl-1H-pyrazol-4-yl)-quinoxalin-6-yl]-allyl}-dimethyl-amine], for which the values for the IC50 in experiment [1], in experiment [2] and in experiment [4] were 15.8 nM, greater than 1000 nM and greater than 10000 nM, respectively. The “BAF3-FLT3 (MIN IL3) pIC50” value in experiment [3] was less than 5.
In the case of `COc1cc(OC)cc(/C(=C\CNCC(F)(F)F)c2ccc3ncc(-c4cnn(C)c4)nc3c2)c1` [Compound 14, {(Z)-3-(3,5-Dimethoxy-phenyl)-3-[3-(1-methyl-1H-pyrazol-4-yl)-quinoxalin-6-yl]-allyl}-(2,2,2-trifluoro-ethyl)-amine], the values for the IC50 in experiment [1], in experiment [2] and in experiment [4] were 12.9 nM, 245 nM and greater than 10000 nM, respectively. The “BAF3-FLT3 (MIN IL3) pIC50” value in experiment [3] is recorded as less than 5.
Taken in the same sequence, the figures for `COc1cc(OC)cc(C(CC#N)c2ccc3ncc(-c4cnn(C)c4)nc3c2)c1` (centres unmarked) [Compound 18] were 145 nM, greater than 1000 nM, greater than 10000 nM and less than 5.
Consider `COc1cc(OC)cc(C(CCN)c2ccc3ncc(-c4cnn(C)c4)nc3c2)c1.Cl` (centres unmarked) [Compound 20], for which the IC50 in experiment [1] was 67.6 nM; in experiment [2], 4680 nM; in experiment [4], greater than 10000 nM. In experiment [3], the “BAF3-FLT3 (MIN IL3) pIC50” value is on record as less than 5.
In the case of `COc1cc(OC)cc(C(CCN(C)C)c2ccc3ncc(-c4cnn(C)c4)nc3c2)c1.Cl` (centres unmarked) [Compound 21], the IC50 was 67.6 nM in experiment [1], greater than 1000 nM in experiment [2] and greater than 10000 nM in experiment [4]. Further, the “BAF3-FLT3 (MIN IL3) pIC50” value in experiment [3] was less than 5.
